# Experimental data as given in US8133687B2, “Labor biomarkers, methods comprising same, and methods targeting same” (The Trustees of the University of Pennsylvania, priority 2005, dated 2012).
# Where two headings read alike, the source gives them in different places. Where no end group is shown, it is not given here.
# Test system: rat aorta-derived A7R5 vascular smooth muscle cells
# Format: cell-based
# Settings: for effect on bradykinin response (cell area): added together with 5 nM bradykinin; for effect on cell area when administered without bradykinin: peptide alone; for effect on PGF2α-induced decrease in cell area: with PGF2α (0.56 nM PG in FIG. 10); for effect on oxytocin-induced decrease in cell area: with oxytocin (10 nM OT in FIG. 10)
# Method: PA gels of controlled stiffness were coated with a nearly constant collagen level (5×10^2 ng/cm^2) as assessed by fluorescent collagen intensities. […] To assess the ability of peptides found in cervicovaginal fluid to activate smooth muscle cells, rat aorta-derived […] vascular smooth muscle cells ([…]; ATCC, Manassas, Va.) were plated onto polyacrylamide gel surfaces (34 kPa) with collagen type 1 (BD Biosciences, San Diego) and covalently pre-attached to the gel surface by sulpho-SANPAH (Pierce, Rockland, Ill.), providing a quantitative and reproducible uterotonics activity assay. Cells were permitted to adhere to the surface for 30 minutes, then were incubated at 37° C. for 4 hours with bradykinin (0-1 μM, Sigma-Aldrich, St. […] Data was fit to a hyperbolic expression using a least squared method, with the half-saturation constant (IC50) representing the intermediate set-point for the system.
# [1] = agonist alone, A7R5 cells, 4 hours at 37° C., read-out: IC50 of dose-dependent decrease in cell area
# [2] = A7R5 cells, listed as potentiation peptide (PP)
compound,measurement,setting,value
"RPPGFSPFR [Bradykinin, bradykinin, reference compound]",IC50,[1],5 nM
"CC[C@H](C)[C@@H]1NC(=O)[C@H](Cc2ccc(O)cc2)NC(=O)[C@@H](N)CSSC[C@@H](C(=O)N2CCC[C@H]2C(=O)N[C@@H](CC(C)C)C(=O)NCC(N)=O)NC(=O)[C@H](CC(N)=O)NC(=O)[C@H](CCC(N)=O)NC1=O [Oxytocin, oxytocin, reference compound]",IC50,4 h,8 nM
"KAHEFYLAAHPTDALFASP (KAHEFYLAAHPTDALFASP-NH2) [control peptide, same amino acids as the 2.022 kDa peptide, residues ordered randomly, reference compound]",effect on bradykinin response (cell area),A7R5 cells,did not affect the bradykinin response
same,effect on cell area when administered without bradykinin,A7R5 cells,Neither the 2.022 kDa peptide nor the control peptide had an effect on cell area
"CCCCC[C@H](O)/C=C/[C@@H]1[C@@H](C/C=C\CCCC(=O)O)[C@@H](O)C[C@H]1O [PGF2α, reference compound]",IC50,"agonist alone, A7R5 cells, 4 hours at 37° C., listed as PGF2-α, read-out: IC50 of dose-dependent decrease in cell area",0.56 nM
same,IC50,[1],1 nM
"AAHLPAEFTPAVHASLDKF [2.022 kDa peptide, amino acids 110-128 of α-chain hemoglobin]",effect on bradykinin response (cell area),A7R5 cells,augmented the bradykinin response
same,effect on bradykinin response (cell area),[2],augmented the 5 nM BK response
same,effect on decrease in cell area elicited by maximal doses of bradykinin,"bradykinin 1 μM, A7R5 cells",not affected
same,effect on cell area when administered without bradykinin,A7R5 cells,Neither the 2.022 kDa peptide nor the control peptide had an effect on cell area
same,effect on PGF2α-induced decrease in cell area,A7R5 cells,enhanced by sub-μM amounts
same,effect on PGF2α-induced decrease in cell area,[2],augmented the 0.56 nM PG response
same,EC50,"with half-saturation dose of bradykinin (5 nM), A7R5 cells, read-out: half-saturation effect of the peptide on the bradykinin response",9.35 µM
same,effect on oxytocin-induced decrease in cell area,A7R5 cells,enhanced by sub-μM amounts
same,effect on oxytocin-induced decrease in cell area,[2],augmented the 10 nM OT response
